Paper PMC7376443 (Bioorganic & medicinal chemistry letters, 2020)

Key:
Type in all cases: biochemical
[1] = molecular target: T1, ChTS-DHFR (thymidylate synthase-dihydrofolate reductase), TS activity (Cryptosporidium hominis, UniProt A0A0S4TER9)
[2] = molecular target: human TS (thymidylate synthase, hTS) (Homo sapiens, UniProt P04818); experiment: TS activity assay, enzyme preincubated with compound without dUMP, […]
[3] = molecular target: T1, ChTS-DHFR (thymidylate synthase-dihydrofolate reductase), TS activity; experiment: radiolabeled CH2H4F to H2F turnover by HPLC, single concentration […]

Sequence of human TS (thymidylate synthase, hTS) (P04818 2-313): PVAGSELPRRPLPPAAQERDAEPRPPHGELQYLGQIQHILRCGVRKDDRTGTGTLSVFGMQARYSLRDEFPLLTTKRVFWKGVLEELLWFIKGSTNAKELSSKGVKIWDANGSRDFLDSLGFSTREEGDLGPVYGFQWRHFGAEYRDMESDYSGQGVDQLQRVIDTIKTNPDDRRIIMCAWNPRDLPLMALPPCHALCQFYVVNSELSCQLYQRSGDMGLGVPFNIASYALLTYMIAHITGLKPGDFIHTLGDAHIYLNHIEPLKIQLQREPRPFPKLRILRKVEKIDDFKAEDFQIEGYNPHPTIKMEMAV

| Substance | IC50 [1] [µM] | % inhibition at 500 uM [2] | % Inhibition of ChTS Activity at 500 μM [3] |
| --- | --- | --- | --- |
| HTS 00950 [compound 6] | 172 ± 11 | ~ 50 | – |
| CD 11057 [compound 7] | – | – | 46.0 ± 0.8 |
| HTS 00967 [compound 10] | – | – | 55 ± 1 |
| HTS 03850 [compound 2] | – | – | 76 ± 9 |
